According to patent US20220119511A1, “COMPOSITIONS AND METHODS FOR TREATMENT OF DIABETES, OBESITY, HYPER-CHOLESTEROLEMIA, AND ATHEROSCLEROSIS BY INHIBITION OF SAM68” (The UAB Research Foundation, priority 2020, published 2022):
Residues, ends and D or L forms follow the SMILES beside them. *: point of attachment. Cbz = O=C(OCc1ccccc1)*

T1: CRTC2 (CREB-regulated transcriptional coactivator 2), endogenous, in WT mouse primary hepatocytes (mouse, UniProt Q3U182 2-692)
T1 construct: Endogenous protein immunoprecipitated with the CRTC2 antibody (sc-271912); also called endogenous CRTC2
T1 sequence (looked up): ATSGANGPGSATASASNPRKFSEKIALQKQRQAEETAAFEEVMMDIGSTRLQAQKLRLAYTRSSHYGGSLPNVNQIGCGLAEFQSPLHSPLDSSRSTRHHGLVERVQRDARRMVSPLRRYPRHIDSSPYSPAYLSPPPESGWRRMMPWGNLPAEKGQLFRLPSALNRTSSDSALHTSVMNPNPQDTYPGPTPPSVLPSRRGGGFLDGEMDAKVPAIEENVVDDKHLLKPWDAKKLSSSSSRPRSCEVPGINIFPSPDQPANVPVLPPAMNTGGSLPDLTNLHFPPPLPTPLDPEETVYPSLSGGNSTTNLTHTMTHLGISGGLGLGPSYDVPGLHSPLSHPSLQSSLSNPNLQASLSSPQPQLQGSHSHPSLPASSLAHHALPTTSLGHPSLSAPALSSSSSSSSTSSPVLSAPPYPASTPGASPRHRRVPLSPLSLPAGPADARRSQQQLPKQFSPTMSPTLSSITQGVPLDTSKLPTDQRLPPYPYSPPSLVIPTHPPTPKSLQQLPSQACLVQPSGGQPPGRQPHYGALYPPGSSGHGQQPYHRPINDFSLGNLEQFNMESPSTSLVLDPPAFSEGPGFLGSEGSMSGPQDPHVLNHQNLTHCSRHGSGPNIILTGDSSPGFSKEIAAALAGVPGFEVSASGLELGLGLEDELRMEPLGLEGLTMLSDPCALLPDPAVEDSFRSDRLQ

B1: Sam68 (Src-associated-in-mitosis-of-68kDa), endogenous, in WT mouse primary hepatocytes (other, UniProt Q60749 1-443, looked up)
chain: MQRRDDPASRLTRSSGRSCSKDPSGAHPSVRLTPSRPSPLPHRPRGGGGGPRGGARASPATQPPPLLPPSTPGPDATVVGSAPTPLLPPSATAAVKMEPENKYLPELMAEKDSLDPSFTHAMQLLSVEIEKIQKGESKKDDEENYLDLFSHKNMKLKERVLIPVKQYPKFNFVGKILGPQGNTIKRLQEETGAKISVLGKGSMRDKAKEEELRKGGDPKYAHLNMDLHVFIEVFGPPCEAYALMAHAMEEVKKFLVPDMMDDICQEQFLELSYLNGVPEPSRGRGVSVRGRGAAPPPPPVPRGRGVGPPRGALVRGTPVRGSITRGATVTRGVPPPPTVRGAPTPRARTAGIQRIPLPPTPAPETYEDYGYDDTYAEQSYEGYEGYYSQSQGESEYYDYGHGELQDSYEAYGQDDWNGTRPSLKAPPARPVKGAYREHPYGRY
notes: Endogenous protein co-immunoprecipitated from mouse primary hepatocytes; also called KHDRBS1

Legend:
CRTC2 = CRTC2 protein levels in primary hepatocytes treated with proteasome or autophagy inhibitors (Western blot); assay type: cell-based, mouse; details: up to 16 h (MG132 20 μM, BZM 100 nM) or up to 8 h (bafilomycin 100 nM)
Protocol: FIGS. 7A-7J show Sam68 binds CRTC2 and inhibits CRTC2 ubiquitination and proteosomal degradation. In FIG. 7A, WT and Sam68^−/− mice were treated with glucagon (30 μg/kg) or PBS for 10 min; then, nuclear and cytoplasmic proteins were isolated from the liver tissue, and Sam68 protein expression was evaluated via Western blot. In FIG. 7B, CRTC2 was immunoprecipitated from WT and Sam68^−/− primary hepatocytes, and then CRTC2, Sam68, and CREB protein was detected in the precipitates via immunoblot. In FIG. 7C, 293T cells were co-transfected with plasmids coding for HA-tagged Sam68 and Flag-tagged CRTC2; 48 h later, CRTC2 was immunoprecipitated from the cells with anti-Flag, and Sam68 was detected in the precipitates by immunoblotting with anti-HA. In FIG. 7D, 293T cells were co-transfected with plasmids coding for Flag-tagged CRTC2 and HA-tagged WT Sam68 or HA-tagged mutations of Sam68 lacking the N-terminal domain (ΔN), the CK domain (ΔCK), proline motifs 3 and 4 (ΔP3-P4), or the C-terminal domain (ΔC); 48 h later, Sam68 and the Sam68 mutants were immunoprecipitated with anti-HA, and CRTC2 was detected in the precipitates by immunoblotting with anti-Flag. […] P62/SQSTM1 and LC3BI/II protein levels were also evaluated to indicate autophagic activity. […]

[1] = molecular target: T1, CRTC2 (CREB-regulated transcriptional …); experiment: co-IP from mouse primary hepatocytes (FIG. 7B)
Protocol: In FIG. 7A, WT and Sam68^{-/-} mice were treated with glucagon (30 μg/kg) or PBS for 10 min; then, nuclear and cytoplasmic proteins were isolated from the liver tissue, and Sam68 protein expression was evaluated via Western blot. In FIG. 7B, CRTC2 was immunoprecipitated from WT and Sam68^{-/-} primary hepatocytes, and then CRTC2, Sam68, and CREB protein was detected in the precipitates via immunoblot. […] In FIG. 7E, WT and Sam68^{-/-} primary hepatocytes were treated with cycloheximide (100 μM) for 0-8 h to block new protein synthesis; then, CRTC2 protein levels were evaluated by Western blot, quantified via Image J software, normalized to β-actin levels, and reported as the proportion of the amount present at 0 h. WT and Sam68^{-/-} primary hepatocytes were treated with cycloheximide and (FIG. 7E) MG132 (20 μM), (FIG. 7F) BZM (100 nM), or (FIG. 7G) bafilomycin (100 nM) for 0-16 (MG132, BZM) or 0-8 (bafilomycin) and CRTC2 protein levels were evaluated by Western blot, quantified via Image J software, normalized to β-actin levels, and reported as the proportion of the amount present in WT cells at 0 h. P62/SQSTM1 and LC3BI/II protein levels were also evaluated to indicate autophagic activity. […]

Row | Molecule | CRTC2 protein levels in Sam68−/− hepatocytes during treatment (CRTC2) | binding result [1]
1 | CC(C)C[C@@H](C=O)NC(=O)[C@H](CC(C)C)NC(=O)[C@H](CC(C)C)NC(=O)OCc1ccccc1 [MG132] (Cbz-Leu-Leu-Leu-aldehyde) | approximately doubled | –
2 | bafilomycin | unchanged | –
3 | B1 | – | binds
